In PubChem BioAssay AID651650 (Sanford-Burnham Center for Chemical Genomics, 2012):
Activity calls are given as the source filed them.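 How the source made its calls: active means mean IC50 below 20 µM in each of the two panels, so potent in both; inactive means the rest.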

These compounds were tested against Neuropilin-1 (Homo sapiens) (UniProt O14786) (assay: blockers of CendR peptide binding to NRP-1 – biochemical, FP and AlphaScreen panel, dose response (AID 651650)). Conditions: NRP-1 b1b2 / RPARPAR peptide binding, FP or AlphaScreen; FP, mean of runs.
Neuropilin-1 (Homo sapiens), sequence (O14786 whole entry, looked up): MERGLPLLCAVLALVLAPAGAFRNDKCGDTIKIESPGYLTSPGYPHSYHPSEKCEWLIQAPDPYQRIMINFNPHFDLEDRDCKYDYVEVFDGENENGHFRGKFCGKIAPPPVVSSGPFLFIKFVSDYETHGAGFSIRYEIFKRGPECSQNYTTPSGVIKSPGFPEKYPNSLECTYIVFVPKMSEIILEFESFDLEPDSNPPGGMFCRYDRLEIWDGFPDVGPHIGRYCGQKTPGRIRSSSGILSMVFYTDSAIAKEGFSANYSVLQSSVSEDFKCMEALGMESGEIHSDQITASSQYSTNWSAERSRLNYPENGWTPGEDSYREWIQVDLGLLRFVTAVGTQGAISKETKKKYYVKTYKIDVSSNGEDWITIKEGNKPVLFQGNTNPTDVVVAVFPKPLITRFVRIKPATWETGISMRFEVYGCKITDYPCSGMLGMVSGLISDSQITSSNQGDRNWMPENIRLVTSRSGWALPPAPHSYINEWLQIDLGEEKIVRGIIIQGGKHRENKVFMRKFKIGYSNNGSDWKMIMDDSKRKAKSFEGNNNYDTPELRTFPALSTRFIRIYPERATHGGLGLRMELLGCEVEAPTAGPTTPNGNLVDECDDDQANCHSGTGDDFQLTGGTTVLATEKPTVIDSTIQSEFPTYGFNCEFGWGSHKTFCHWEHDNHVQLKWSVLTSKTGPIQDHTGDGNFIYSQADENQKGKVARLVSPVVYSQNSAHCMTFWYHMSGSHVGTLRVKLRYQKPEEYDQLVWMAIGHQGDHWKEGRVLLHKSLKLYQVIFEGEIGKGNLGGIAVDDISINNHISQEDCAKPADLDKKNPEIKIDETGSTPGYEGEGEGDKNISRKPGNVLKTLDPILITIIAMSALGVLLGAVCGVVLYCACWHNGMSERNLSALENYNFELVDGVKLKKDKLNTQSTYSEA

| SMILES | IC50 |
| --- | --- |
| O=C(c1ncn(Cc2ccccc2)c1C(=O)N1CCc2ccccc2C1)N1CCc2ccccc2C1 | > 95 µM (inactive) |
| COC(=O)C1=C(c2ccc(F)cc2OCc2ccccc2)C[C@@H]2CC[C@H]1N2C(=O)NCCNC(C)=O | > 95 µM (inactive) |
| COC(=O)C1=C(C)NC(C)=C(C(=O)OC)C1C(=O)OC(C)C(=O)c1ccccc1 (stereo not given) | > 95 µM (inactive) |
| CCC1=C(OC(=O)N(CC)CC)N2C(=O)OC(=NCCOC)[C@]2(Cc2ccccc2)[C@H]2C1=CC[C@H]1C(=O)N(CC(=O)OC)C(=O)[C@H]12 | > 95 µM (inactive) |
| CC(C)C1=C2CCCCC2NC(=O)N1 (stereo not given) | > 95 µM (inactive) |
| CC1(C)CN=C(Nc2ccc(F)c(Cl)c2)S1 | > 95 µM (inactive) |
| Cc1ccccc1OCC1Cc2c(nc(N)c(C#N)c2N)O1 (stereo not given) | > 95 µM (inactive) |
| Cc1cc(N/C(=N/S(=O)(=O)c2cc(F)ccc2F)c2ccccc2)n(-c2ccccc2)n1 | > 95 µM (inactive) |
| COc1cccc(C(=O)N2N=C(c3ccccc3)CC2(O)C(F)(F)F)c1 (stereo not given) | > 95 µM (inactive) |
| CCCCc1ccc(S(=O)(=O)N2CCC3(CC2)OCCO3)cc1 | > 95 µM (inactive) |
| COC(=O)c1ccccc1NC(=O)CSc1nc(C)cc(C)n1 | > 95 µM (inactive) |
| CCCS(=O)(=O)N1CCC(C(=O)NC2CCCC(C)C2C)CC1 (stereo not given) | > 95 µM (inactive) |
| Cc1nnc(SC(C)C(=O)Nc2ccc(S(=O)(=O)NC3CCCCC3)cc2)s1 (stereo not given) | > 95 µM (inactive) |
| CC(=O)c1cccc(S(=O)(=O)N2CCC(C(=O)O)(c3ccccc3)CC2)c1 | > 95 µM (inactive) |
| CC(=O)Oc1cc2c(c3ccccc13)CCC2=O | > 95 µM (inactive) |
| COC(=O)n1c(=O)oc2ccccc21 | > 95 µM (inactive) |
| O=C1c2cc([N+](=O)[O-])cc3cc([N+](=O)[O-])cc(c23)C(=O)N1c1ccccn1 | > 95 µM (inactive) |
| CCn1c(=O)c(C(=O)NCCNCCO)c(O)c2ccccc21 | > 95 µM (inactive) |
| CCN(Cc1ccncc1)C(=O)c1cc(COc2ccc(F)cc2F)on1 | > 95 µM (inactive) |
| CCC(=O)Nc1nc2nc(-c3ccccc3)cc(-c3ccccc3)n2n1 | > 95 µM (inactive) |
| CC(C)COC(=O)C1C2C=CC3(CN(C(C)c4ccc(Br)cc4)C(=O)C13)O2 (stereo not given) | > 95 µM (inactive) |
| Cc1cc2cc(CNC(=O)c3ccco3)ccc2n1C | > 95 µM (inactive) |

Same assay, conditions: NRP-1 b1b2 / RPARPAR peptide binding, FP or AlphaScreen; FP, run 1; individual panel run IC50

| SMILES | IC50 [µM] |
| --- | --- |
| O=C(c1cccc(F)c1)N1CCN(c2ccc([N+](=O)[O-])c(N3CCCCC3)c2)CC1 | > 95 |
| N#CC(C#N)=Cc1cc2ccccc2nc1N1CCCCC1 | > 95 |
| COc1cc(C(=O)Nc2cc3c(cc2N2CCCCC2)n(C)c(=O)n3C)cc(OC)c1OC | > 95 |
| Cc1ccc(C)c(-n2c(SCC(=O)NC(C(=O)O)C(C)C)nnc2-c2cccc(Cl)c2)c1 (stereo not given) | > 95 |
| Cc1ccc(Cl)c(NC(=O)CSc2cccc[n+]2[O-])c1Cl | > 95 |
| Cc1ccc2cc(CN(c3ccccc3C)S(=O)(=O)c3ccccc3)c(=O)[nH]c2c1 | > 95 |
| CCOc1ccc(S(=O)(=O)NNC(=O)c2cc3ccccc3o2)cc1 | > 95 |
| Oc1ccc(-c2nc3ncccn3c2Nc2ccc3c(c2)OCO3)cc1 | > 95 |
| CCCc1c(C)nc(N2CCN(c3ccccc3OC)CC2)[nH]c1=O | > 95 |
| CN(C)/C=C/c1c([N+](=O)[O-])c2ccc(O)cc2n1-c1ccccc1 | > 95 |
| N=C1C(=O)OCC1c1cc(Cl)ccc1NC(=O)Nc1ccccc1 (stereo not given) | > 95 |
| CCCn1c(C)cc(C(=O)CSc2nc3nc(C)cc(C)n3n2)c1C | > 95 |
| C/C(=N\NC(=O)c1cc(O)ccc1O)c1cccc(NC(=O)c2cccc(Cl)c2)c1 | > 95 |
| CCOC(=O)N1CCN(C(=O)Nc2ccc3nc(C)c(C)nc3c2)CC1 | > 95 |
| O=C(NCCN1CCN(C(=O)c2cccc(OC(F)F)c2)CC1)c1cccc(OC(F)F)c1 | > 95 |
| O=C1CCC[C@@H]2Cc3nc4cc5c(cc4cc3[C@@H]3CCN1[C@H]23)OCO5 | > 95 |
| Cc1ccc(N(C(=O)c2ccc(CN3CCOCC3)o2)C(C(=O)NCCC(C)C)c2cccs2)c(C)c1 (stereo not given) | > 95 |

| SMILES | IC50 [µM] |
| --- | --- |
| Cc1ccc(NC(=O)c2ccc3c(c2)S(=O)(=O)c2ccccc2C3=O)cc1S(=O)(=O)N1CCOCC1 | > 95 |
| CCc1ccccc1NC(=O)c1ccccc1N1C(=O)C2C3C=CC(C3)C2C1=O (stereo not given) | > 95 |
| Cc1ccc(S(=O)(=O)NCC(=O)N(c2ccccc2)C(C(=O)NCc2ccccc2)c2ccco2)cc1 (stereo not given) | > 95 |
| CCOC(=O)Cc1ccc(NS(=O)(=O)c2ccc(SC)cc2)cc1 | > 95 |
| CC1(c2ccccc2)CC(C)(C)n2c(O)c(C3=NC(=S)NC3=O)c3cccc1c32 (stereo not given) | > 95 |
| O=C(c1ncn(Cc2ccccc2)c1C(=O)N1CCc2ccccc2C1)N1CCc2ccccc2C1 | > 95 |
| COC(=O)C1=C(c2ccc(F)cc2OCc2ccccc2)C[C@@H]2CC[C@H]1N2C(=O)NCCNC(C)=O | > 95 |
| COC(=O)C1=C(C)NC(C)=C(C(=O)OC)C1C(=O)OC(C)C(=O)c1ccccc1 (stereo not given) | > 95 |
| CCC1=C(OC(=O)N(CC)CC)N2C(=O)OC(=NCCOC)[C@]2(Cc2ccccc2)[C@H]2C1=CC[C@H]1C(=O)N(CC(=O)OC)C(=O)[C@H]12 | > 95 |
| CC(C)C1=C2CCCCC2NC(=O)N1 (stereo not given) | > 95 |
| CC1(C)CN=C(Nc2ccc(F)c(Cl)c2)S1 | > 95 |
| Cc1ccccc1OCC1Cc2c(nc(N)c(C#N)c2N)O1 (stereo not given) | > 95 |
| Cc1cc(N/C(=N/S(=O)(=O)c2cc(F)ccc2F)c2ccccc2)n(-c2ccccc2)n1 | > 95 |
| COc1cccc(C(=O)N2N=C(c3ccccc3)CC2(O)C(F)(F)F)c1 (stereo not given) | > 95 |
| CCCCc1ccc(S(=O)(=O)N2CCC3(CC2)OCCO3)cc1 | > 95 |
| COC(=O)c1ccccc1NC(=O)CSc1nc(C)cc(C)n1 | > 95 |
